Laboratory results as given in ChEMBL document CHEMBL4145580, “Sesquiterpenoids from Chloranthus anhuiensis with Neuroprotective Effects in PC12 Cells” (J Nat Prod, 2018).
Calls of active or inactive are those of the source. The rule behind the calls is not given here.

Tested on: PC-12
Experiment: Neuroprotective activity against glutamate-induced apoptotic cell death in rat PC12 cells assessed as apoptotic neurons at 10 to 40 uM pretreated with compound followed by glutamate challenge measured after 24 hrs by Hoechst 33258 staining based assay (reference value: 65.5%)
Format: functional

SMILES	Activity
CC(=O)OC[C@@H]1[C@H]2C[C@H]2[C@]2(C)C=C3OC(=O)C(CO)=C3C[C@@H]12	7.2 - 23.7%

Tested on: PC-12
Experiment: Neuroprotective activity against glutamate-induced apoptotic cell death in rat PC12 cells assessed as decrease in caspase-3 level at 10 to 40 uM measured after 24 hrs
Format: functional, cell-based

SMILES	Activity
CC(=O)OC[C@@H]1[C@H]2C[C@H]2[C@]2(C)C=C3OC(=O)C(CO)=C3C[C@@H]12	Active

Biological target: RAC-alpha serine/threonine-protein kinase (Rattus norvegicus) (UniProt P47196)
Sequence (P47196 whole entry): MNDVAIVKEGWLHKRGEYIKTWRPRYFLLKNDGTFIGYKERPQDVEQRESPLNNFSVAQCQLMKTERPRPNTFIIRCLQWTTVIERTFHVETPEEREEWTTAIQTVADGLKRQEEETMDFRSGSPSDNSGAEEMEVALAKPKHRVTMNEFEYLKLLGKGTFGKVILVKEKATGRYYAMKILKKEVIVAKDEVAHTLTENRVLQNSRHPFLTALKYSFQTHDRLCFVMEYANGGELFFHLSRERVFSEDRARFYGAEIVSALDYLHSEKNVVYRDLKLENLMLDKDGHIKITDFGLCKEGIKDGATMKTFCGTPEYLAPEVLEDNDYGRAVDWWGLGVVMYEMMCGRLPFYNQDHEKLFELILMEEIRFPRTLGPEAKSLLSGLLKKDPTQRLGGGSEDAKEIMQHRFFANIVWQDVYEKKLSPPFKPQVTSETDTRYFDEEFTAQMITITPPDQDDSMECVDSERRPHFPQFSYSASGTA
Experiment: Increase in Akt phosphorylation in glutamate-induced rat PC12 cells at 10 to 40 uM measured after 24 hrs by Western blot analysis

SMILES	Activity
CC(=O)OC[C@@H]1[C@H]2C[C@H]2[C@]2(C)C=C3OC(=O)C(CO)=C3C[C@@H]12	Active

Tested on: PC-12
Experiment: Neuroprotective activity against glutamate-induced neuronal cell death in rat PC12 cells assessed as increase in cell viability pretreated for 2 hrs followed by glutamate challenge measured after 24 hrs by MTT assay
Format: functional, cell-based

SMILES	EC50 [µM]	Activity
COCCOC(=O)C1=C(C)NC(C)=C(C(=O)OC(C)C)C1c1cccc([N+](=O)[O-])c1 (centres undefined) [NIMODIPINE]	97.3	–
C=C1[C@H]2C[C@H]2[C@]2(COC(C)=O)C[C@@H]3OC(=O)C(C)=C3C[C@@H]12	89.5	–
CC1=C2C(=O)c3c(C)coc3C(=O)[C@@]2(C)[C@@H](O)CC1	–	inactive
C=C[C@]1(C)C[C@@H]2OC(=O)C(C)=C2C[C@H]1C(=C)C [ISOGERMAFURENOLIDE]	24.3	–
CC1=C2C[C@@H]3[C@](C)(CCC[C@]3(C)O)C[C@]2(O)OC1=O	–	inactive
CC(=O)CCc1c(C)ccc2c1C(=O)OC2(C)C	93.1	–
C=C(C)[C@@H]1CC[C@]2(C)C(=C(C)C(=O)C[C@H]2O)C1	–	inactive
CC1=C2C(=O)[C@@](O)(C(C)C)CC[C@@]2(C)CCC1=O	132	–
C=C1CCC[C@]2(C)C=C3OC(=O)C(C)=C3C[C@@H]12	–	inactive
Cc1coc2c1C(=O)[C@@H]1[C@@](C)(C2)C(=O)CC[C@@]1(C)O	107	–
CC(=O)OC[C@@H]1[C@H]2C[C@H]2[C@]2(C)C=C3OC(=O)C(C)=C3C[C@@H]12	–	inactive
Cc1coc2c1C(=O)[C@H]1[C@@](C)(O)CCC(=O)[C@]1(C)C2	–	inactive
CC1=C2C(=O)[C@@](O)(C(C)C)CC[C@]2(C)CCC1	–	inactive
Cc1coc2c1C(=O)[C@H]1[C@](C)(C2=O)[C@@H](O)CC[C@@]1(C)O	–	inactive
CC1=C(C[C@@H]2OC(=O)[C@@H](C)CC/C=C\2C)C(=O)OC1	–	inactive
CC1=C2C[C@@]3(C)[C@H](C[C@@]2(O)OC1=O)C(=O)CC[C@@H]3C	–	inactive
CC(=O)OC[C@@H]1[C@H]2C[C@H]2[C@]2(C)C=C3OC(=O)C(CO)=C3C[C@@H]12	3.3	–
Cc1coc2c1C(=O)[C@@H]1[C@@](C)(C2)[C@H](O)CC[C@@]1(C)O	–	inactive
Cc1coc2c1C(=O)[C@H]1O[C@]1(C)CC[C@@H](O)[C@](C)(O)C2	70.3	–
C=C1CCC[C@]2(C)C(=O)c3occ(C)c3C[C@@H]12	119	–
C=C1CCC[C@]2(C)C[C@]3(O)OC(=O)C(C)=C3C[C@@H]12 [ATRACTYLENOLIDE III]	36.3	inactive
CC1=C2C(=O)c3c(C)coc3[C@@H](O)[C@]2(C)[C@@H](O)CC1	–	inactive
C=C1CCC[C@]2(C)C=C3OC(=O)C(C)=C3[C@H](O)[C@@H]12	–	inactive
Cc1coc2c1C[C@@H]1[C@](C)(CCC[C@@]1(C)O)C2	–	inactive
Cc1coc2c1C(=O)[C@H]1[C@@H](C)CC[C@H](O)[C@]1(C)C2=O	51.4	–
C=C1CC[C@@H]2C(=C)C[C@@]3(O)OC(=O)C(C)=C3[C@@]2(O)C1	15.2	–
CC1=C2C[C@@]3(C)[C@H](C[C@H]2OC1=O)C(=O)CC[C@@H]3C	–	inactive
CC1=C2C[C@@H]3[C@@](C)(C=C2OC1=O)CCC[C@@]3(C)O	–	inactive
CC1=C2C(=O)c3c(C)coc3C[C@@]2(C)C=CC1=O	106	–
C=C1[C@H](O)CC[C@@]2(C)C[C@@]3(O)OC(=O)C(C)=C3C[C@H]12	–	inactive
